Values after ≈ are worked out from the molar mass of the structure shown. Structures can show the parent of a compound that is named as a salt.
How the values were obtained:
[1] = tested on: isolated auricles of guinea pigs; assay: Reduction of the maximum driving frequency (MDF) of isolated auricles of guinea pigs; format: cell-based, guinea pig; conditions: Cavia porcellus; isolated left auricles; tyrode solution, 37° C., pH 7.4; cumulative addition; MDF 5 and 10 minutes after adding; read-out: EC50: concentration causing a 50% decrease of the maximum driving frequency (MDF)
Method: 1. reduction of the maximum driving frequency of isolated auricles of guinea pigs The tests were carried out using an adaption of the method of DAWES (Brit. J. Pharmacol.1, 90, 1946). Guinea pigs of both sexes, body weight between 300 and 400 gm were killed by a blow on the neck. The left auricles were quickly removed and put into an organ bath of 100 ml. The organ bath was filled with tyrode solution, which was infused with a mixture of 98% of oxygen and 2% of carbon dioxide. […] The auricles were stimulated with square wave impulses of 1 millisecond duration at a voltage 200% higher than the threshold voltage and a frequency of 1 Hz (Hugo Sachs, Stimulator II). A weight of 0.4 gm was applied to the auricles and the contractions were continuously measured isometrically by means of a force displacement transducer (Grass Ft 03) and recorded on a Grass polygraph (model 5). After sufficient equilibration time (15 min.) the stimulation rate was increased every 10 seconds by 1 Hz until the maximum driving frequency (MDF) was reached. The MDF is defined as the stimulation frequency, where every stimulation is still answered by a contraction. The MDF was determined before and 5 and 10 minutes after adding the test compound. The test compound was added cumulatively to the organ bath. The concentration causing a 50% decrease of the MDF (EC50) was calculated from a dose-response curve.

[2] = tested on: ouabain-induced ventricular arrhythmia in dogs; assay: Suppression of ouabain-induced ventricular arrhythmia in dogs; format: in vivo, dog; conditions: 12 dogs
Method: (§1) 3. Suppression of ouabain-induced ventricular arrhythmia in dogs
(§2) According to the method described by ALLEN, et al. (supra), dogs were anesthetized by subcutaneous injection of morphine sulfate (0.5 mgm/kg), followed by intravenous injection of pentobarbitone (20 mgm/kg). The animals were given artificial respiration with room air from a Starling pump via a cuffed endotracheal tube. The electrocardiogram (lead II) was recorded on a Devices recorder (Type M8 or M 4). Test compound administration was through a polyethylene catheter inserted in a foreleg vein.
(§3) Observations were made on 12 dogs. Ventricular tachycardia was produced by intravenous injection of ouabain, first 40 mgm/kg, followed after 30 minutes by 20 mgm/kg and by 10 mgm/kg every 15 minutes until ventricular tachycardia was established. 10 minutes after the last ouabain injection, the test compound was continuously infused intravenously from a motor-driven syringe at a rate of 0.2 mgm/kg per minute, until sinus rhythm returned. The mean dose of ouabain to produce ventricular tachycardia was 60 ± 2.8 mg/kg. The mean dose of compound A required to convert the ventricular tachycardia to sinus rhythm was 0.76 ± 0.18 mg/kg i.v.

in vivo = format: in vivo, dog; conditions: dog, in vivo, iv
Method: (§4) 2. prevention of ventricular arrhythmia provoked by adrenalin in dogs under halothane anesthesia
(§5) According to the method described by ALLEN, et al in Brit. J. Pharmacol. 45, 561 (1972), dogs were anesthetized by subcutaneous injection of 0.5 mgm/kg morphine sulfate and by intravenous injection of 20 mg/kg pentobarbitone. The animals were given artificial respiration with room air from a Starling pump via a cuffed endotracheal tube. The electrocardiogram (lead II) was recorded on a Devices recorder (Type M 8 or M 4). The test compound was injected through a polyethylene catheter inserted into a foreleg vein.
(§6) Observations were made on 4 dogs. The artificial respiration was continued adding 1% halothane to the room air. 15 minutes later adrenalin was injected at doses of 0.2 and increased to 0.4, 0.8, 1.2, 1.6, 2.0, 2.4 and 2.8 […], at intervals of 7 to 10 minutes between each dose, until ventricular tachycardia had been produced. After the arrhythmia-producing dose of adrenalin had been established, compound A was injected intravenously. 5 minutes later the adrenalin injection was repeated, using the same dose. The dose of the test compound was increased to obtain the minimum dose which prevented the adrenalin-induced arrhythmia.
as §1, §2, §3
(§7) The lowest therapeutic dose was 0.1 mgm/kg i.v., which is about 100 to 200 times smaller than the mean toxic dose.

anesthetized dogs = assay: animal or person; format: in vivo, dog
Method: as §4, §5, §6, §1, §2, §3, §7

[3] = Acute i.v. toxicity in mice; conditions: mouse, in vivo, iv, tail vein, LITCHFIELD and WILCOXON, read-out: median lethal dose (LD50)
Method: 4. Acute i.v. toxicity in mice
Mice of both sexes having a body weight of 20 to 25 gm were used. The test compound was dissolved in distilled water and injected into the mice with a volume of 0.1 ml/10 gm body weight by way of a tail vein. Each dose was injected into 10 mice. The number of dead animals was determined and the median lethal dose (LD50) was calculated using the method of LITCHFIELD and WILCOXON [J. Pharmac. Exp. Ther. 96, 99 (1949)].

[4] = tested on: adrenalin-induced ventricular arrhythmia in dogs; assay: Prevention of ventricular arrhythmia provoked by adrenalin in dogs under halothane anesthesia; format: in vivo, dog; conditions: Canis lupus familiaris, iv, 5 min, i.v., 4 dogs, adrenalin 5 minutes after compound, read-out: mean dose that abolished the adrenalin arrhythmias
Method: as §4, §5, §6

| Compound | EC50 [1] [µg/mL] | further results |
| --- | --- | --- |
| C(=Cc1ccccc1OCCN1CCOCC1)c1ccccn1 [C, 2-[0-(β-Morpholino-ethoxy)-styryl]-pyridine dihydrochloride] | 33 |  |
| C[C@@H]1O[C@@H](O[C@H]2C[C@@H](O)[C@]3(CO)[C@H]4[C@H](O)C[C@]5(C)[C@@H](C6=CC(=O)OC6)CC[C@]5(O)[C@@H]4CC[C@]3(O)C2)[C@H](O)[C@H](O)[C@H]1O [ouabain, reference compound] |  | mean dose of ouabain to produce ventricular tachycardia ([2]; intravenous): 60 ± 2.8 mg/kg |
| CN(C)CCOc1ccccc1C=Cc1ccccc1.Cl [I, 2-(2-Dimethylamino-ethoxy)-stilbene hydrochloride] | 10 |  |
| CN(C)CCOc1ccccc1C=Cc1nc2ccccc2n1C.Cl.Cl [G, 2-[o-(β-Dimethylamino-ethoxy)-styryl]-1-methyl-benzimidazole dihydrochloride] | 9 |  |
| CNCCOc1ccccc1C=Cc1ccccn1 [B, 2-[0-(β-Methylamino-ethoxy)-styryl]-pyridine dihydrochloride] | 8.3 |  |
| CN(C)CCOc1ccccc1C=Cc1ccccn1.Cl [A, 2-[o-(β-Dimethylamino-ethoxy)-styryl]-pyridine monohydrochloride] | 3.8 | selectivity ratio (in vivo): 100 to 200; minimal effective dose (anesthetized dogs; Canis lupus familiaris, iv, read-out: lowest therapeutic dose): 0.1 mg/kg; antiarrhythmic effectiveness (in words) (anesthetized dogs; anesthetized dogs): very effective antiarrhythmic compound; therapeutic ratio (in words) (anesthetized dogs; dog, in vivo, iv): excellent therapeutic ratio; LD50 [3]: 25 mg/kg; minimal effective dose ([2]; Canis lupus familiaris, iv, i.v. infusion 0.2 mgm/kg per minute, ouabain-induced tachycardia, read-out: mean dose required to convert the ventricular tachycardia to sinus rhythm): 0.76 ± 0.18 mg/kg; minimal effective dose [4]: 0.18 ± 0.04 mg/kg |
| CN(C)CCOc1ccccc1C=Cc1ccc2ccccc2n1.Cl [F, 2-[o-(β-Dimethylamino-ethoxy)-styryl]-quinoline hydrochloride] | 10 |  |
| Cc1cccc(C=Cc2ccccc2OCCN(C)C)n1.Cl [Compound E, 2-[o-(β-Dimethylamino-ethoxy)-styryl]-6-methyl-pyridine hydrochloride] | 6.3 |  |
| CN(C)CCOc1ccccc1C=Cc1cnccn1 [H, 2-[o-(β-Dimethylamino-ethoxy)-styryl] -pyrazine] | 25 (≈ 92.8 µM) |  |
| CC(=Cc1ccccc1OCCN(C)C)c1ccccn1 [D, 1-[o-(β-Dimethylamino-ethoxy)-phenyl]-2-(pyridyl-2)-propene-1 monohydrochloride] | 3.1 |  |

From patent publication US4130650A, “Antiarrhythmic method of use” (priority 1976, dated 1978)
